The results in this text go back to US20120323164A1, “PHOTODYNAMIC THERAPY WITH PHTHALOCYANINES AND RADICAL SOURCES” (Case Western Reserve University, priority 2011, published 2012).

A short description of data set [1]: Qualitative solubility in organic solvents.
A short description of data set [2]: Photodecomposition of phthalocyanines in toluene under white light, no added radical source. The settings on record: for decomp (%): toluene ~9 μM, white light 1.2 kJ/s/m^2.
Method: The distance between the cuvette face and the lamp filament was 30 cm. Determination of the beam intensity at the cuvette face was made with a powermeter (Powermax, pm10, Coherent, Santa Clara, Calif.). The beam intensity was checked before each measurement.
Solutions for the photodecomposition experiments were prepared as follows. […] This assumption was justified on the basis that all of the silicon phthalocyanines studied contained simple, unsubstituted phthalocyanine rings. The extinction coefficients of the aluminum phthalocyanines were assumed to be 2.3×10^5, the extinction coefficient of AlPcOSi(CH3)2(CH2)3N(CH3)2, Pc 1.
The absorbance of the Q band of the solution, A, was determined with a spectrophotometer (Lambda 25, Perkin Elmer, Shelton, Conn.; fused silica cuvettes, 1.00 cm, 3.5 mL, Fisher Scientific). From A, ε, the cuvette path length, b, and Beer's law, the concentration of the solution, c, was determined. The solution was then diluted with toluene to a concentration of 9.2 μM. To verify that this was the concentration of the solution, its absorbance was measured again.
In a typical determination, the solution (3.00 mL) was placed in a cuvette (1.00 cm, 3.5 mL, Fisher Scientific, Pittsburgh, Pa.) and its absorbance was measured with the spectrometer (Lambda 25) before irradiation and at 2, 4, 6 and 8 h.
where A0 is the absorbance of the solution at time 0, and At is the absorbance at time t.
Setting [3] is: time 2 h, radiation 86 kJ/mol × 10^−6, no added alkene.
[4] abbreviates: time 4 h, radiation 172 kJ/mol × 10^−6, no added alkene.
Where [5] appears, read: time 6 h, radiation 258 kJ/mol × 10^−6, no added alkene.
Where [6] appears, read: time 8 h, radiation 344 kJ/mol × 10^−6, no added alkene.

For the compound `CC/C=C\C/C=C\C/C=C\C/C=C\C/C=C\C/C=C\CCC(=O)O.CC/C=C\C/C=C\C/C=C\C/C=C\C/C=C\C/C=C\CCC(=O)O.CN(C)CCC[Si](C)(C)O[Si]1(O[Si](C)(C)CCCN(C)C)n2c3c4ccccc4c2N=C2N=C(N=c4c5ccccc5c(n41)=NC1=NC(=N3)c3ccccc31)c1ccccc12` [Pc 292, SiPc[OSi(CH3)2(CH2)3NH(CH3)2]2^2+ [OC(O)CH2(CH2CH═CH)6CH2CH3]2^−], in data set [1], the “solubility (in words)” value is “soluble in ethanol, CH2Cl2 and dimethylformamide, moderately soluble in toluene, and insoluble in hexanes”. Also, the “decomp (%)” value in data set [2] (time 0 h, no added alkene) came out at 0%; in data set [2] (setting [3]), 20%; in data set [2] (setting [4]), 21%; in data set [2] (setting [5]) it was 22%; in data set [2] (setting [6]), 22%.

As for “SiPc[O(CH2CH═C(CH3)CH2)2CH2CH═C(CH3)2]2 [Pc 303]”, the “solubility (in words)” value in data set [1] is “soluble in CH2Cl2, dimethylformamide, pyridine and toluene, and insoluble in hexanes and methanol”. In addition, the “stability in the dark” value in data set [2] is on record as “stable in the dark”. The “decomp (%)” value in data set [2] (time 0 h, no added alkene) is recorded as 0%; in data set [2] (setting [3]), 1%; in data set [2] (setting [4]), 2%; in data set [2] (setting [5]), 2%; in data set [2] (setting [6]), 2%.

“SiPc[OC(O)CH2(CH2CH═CH)6CH2CH3]2 [Pc 300]”: the “solubility (in words)” value in data set [1] was “soluble in CH2Cl2, dimethylformamide, pyridine and toluene, slightly soluble in hexanes, and insoluble in methanol”. Further, the “decomp (%)” value in data set [2] (time 0 h, no added alkene) was determined as 0%; in data set [2] (setting [3]) it was 16%; in data set [2] (setting [4]), 34%; in data set [2] (setting [5]) it was 46%; in data set [2] (setting [6]) it was 56%.

Consider SiPc[O(CH2)4CH3]2 [Pc 307], for which the “solubility (in words)” value in data set [1] was “soluble in CH2Cl2, dimethylformamide, pyridine and toluene, and insoluble in hexanes and methanol”. Also, the “stability in the dark” value in data set [2] is listed as “stable in the dark”. In addition, the “decomp (%)” value is reported as 0% in data set [2] (time 0 h, no added alkene); 23% in data set [2] (setting [3]); 55% in data set [2] (setting [4]); 80% in data set [2] (setting [5]); 90% in data set [2] (setting [6]).

For the compound “SiPc[OC(O)(CH2)6(CH2CH═CH)2(CH2)4CH3]2 [Pc 296]”, the “solubility (in words)” value in data set [1] was “soluble in CH2Cl2, dimethylformamide, pyridine and toluene, slightly soluble in hexanes, and insoluble in methanol”. Besides, the “decomp (%)” value in data set [2] (time 0 h, no added alkene) stood at 0%; in data set [2] (setting [3]) it was 2%; in data set [2] (setting [4]), 3%; in data set [2] (setting [5]), 4%; in data set [2] (setting [6]), 5%.

For the compound `C=C[Si](C=C)(C=C)O[Si]1(O[Si](C=C)(C=C)C=C)n2c3c4ccccc4c2N=C2N=C(N=c4c5ccccc5c(n41)=NC1=NC(=N3)c3ccccc31)c1ccccc12` [Pc 279, SiPc[OSi(CH═CH2)3]2], the “solubility (in words)” value in data set [1] is “soluble in CH2Cl2, dimethylformamide, pyridine and toluene, and insoluble in hexanes and methanol”. In addition, the “decomp (%)” value in data set [2] (time 0 h, no added alkene) turned out to be 0%; in data set [2] (setting [3]), 0%; in data set [2] (setting [4]), 0%; in data set [2] (setting [5]), 0%; in data set [2] (setting [6]), 0%. Besides, the “photostability (in words)” value in data set [2] (white light, toluene, no added alkene) was “quite stable, remaining unchanged during 8 hours of irradiation”.

Consider `CCCCC/C=C\C/C=C\CCCCCCCC(=O)O.CCCCC/C=C\C/C=C\CCCCCCCC(=O)O.CN(C)CCC[Si](C)(C)O[Si]1(O[Si](C)(C)CCCN(C)C)n2c3c4ccccc4c2N=C2N=C(N=c4c5ccccc5c(n41)=NC1=NC(=N3)c3ccccc31)c1ccccc12` [Pc 289, SiPc[OSi(CH3)2(CH2)3NH(CH3)2]2^2+ [OC(O)(CH2)6(CH2CH═CH)2(CH2)4CH3]2], for which the “solubility (in words)” value in data set [1] was “soluble in ethanol, CH2Cl2 and dimethylformamide, moderately soluble in toluene, and insoluble in hexanes”. In addition, the “decomp (%)” value in data set [2] (time 0 h, no added alkene) worked out at 0%; in data set [2] (setting [3]), 18%; in data set [2] (setting [4]), 19%; in data set [2] (setting [5]), 20%; in data set [2] (setting [6]) it was 21%.
